“Also recorded” adds a separate entry of the source.
Assays:
Format in all cases: cell-based
[1] = test system: endothelin (ET-1)-induced rise in intracellular calcium concentration in normal human neonatal epidermal melanocytes (NHEMs); experiment: Endothelin action-suppressing effect: endothelin-induced rise in intracellular calcium (Fluo4-AM, FDSS); details: for Rate of rise in intracellular Ca concentration: pretreated 1 minute, ET-1 100 nM, relative value, control = 100, N=6; for Effect of suppressing endothelin action (in words): 50 μM
Procedure: Normal human neonatal epidermal melanocytes (NHEMs, KURABO INDUSTRIES LTD.) were seeded at 3×10^4 cells/well (200 μL/well) in 96-well plates for use in fluorometry, and cultured at 37° C. under 5% CO2. The medium used was PMA (−), growth additive (HMGS)-containing Medium 254.
After culture for 3 days, the medium was removed from the culture plate by decantation, and replaced with an assay buffer containing a reagent Fluo4-AM for intracellular Ca^2++ measurement, which was followed by incubation at 37° C. for 1 hour. Subsequently, 20 seconds after the start of the measurement, the compound at a predetermined concentration was pretreated for 1 minute in a FDSS (Functional Drug Screening System) instrument, and then endothelin (ET-1, 100 nM final concentration) as a ligand was added to the wells. Fluo4-AM fluorescence was detected at the measurement wavelengths Ex. 480 nm and Em. 540 nm over time from the start of the measurement to 5 minutes later.
For each compound, the rate (%) of rise in intracellular calcium (calcium ion) concentration was calculated as a relative value (%) when an increase (Max ratio−Min ratio) in Fluo4-AM fluorescence in a control was normalized as 100. The suppressing effect of endothelin action was evaluated based on the calculated rate. In the control used, ethanol or a 10 to 95 v/v % aqueous ethanol solution was added at a final concentration of 0.1 to 0.5 v/v %. […]
The compound prepared as described above was pretreated at the final concentration shown in Table 3 and subjected to the assay system. Then, the rate of endothelin-induced rise in Ca concentration was calculated (N=6). […]

[2] = test system: melanocyte-containing, 3-D cultured skin model (MEL300A); experiment: Melanin production-suppressing effect in 3-D cultured skin model stimulated with ET-1 and SCF; details: 14 days; for Effect on melanin content / melanin production (in words): 3-D skin model
Procedure: (§1) A melanocyte-containing, 3-D cultured skin model (MEL300A, KURABO INDUSTRIES LTD.) was cultured at 37° C. under 5% CO2 using an EPI-100-NMM113 medium to which endothelin-1 (ET-1) as a melanocyte activator and SCF (stem cell growth factor) were each added at a final concentration of 10 nM. From the first day of the culture, the baeomycesic acid was added at a final concentration of 50 μM (N=2). The medium was refreshed once every three days. After 14 days, the skin model was washed with PBS and photographed. Subsequently, the cell respiration activity was measured using the Alamar Blue reagent to confirm that the final concentration was not cytotoxic (the results are not shown).
Subsequently, the skin model cup was washed with PBS, and the skin sheet was removed with tweezers, transferred into a tube, and washed three times with PBS. The skin sheet was washed three times with 50% ethanol and twice with 100% ethanol, and then allowed to stand overnight at room temperature, so that it was completely dried. After 200 μL of 2 M NaOH was added, the skin sheet was dissolved at 100° C. A supernatant obtained by centrifugation of the solution was measured for absorbance at a wavelength of 405 nm, and then the melanin content was calculated. The melanin content was expressed as a relative value (%) when the melanin content in a control was normalized as 100. In the control used, ethanol or a 10 to 95 v/v % aqueous ethanol solution was added at a final concentration of 0.1 to 0.5 v/v %.

[3] = test system: melanocyte-containing, 3-D cultured skin model (MEL300A); experiment: Cell respiration activity (Alamar Blue) of the skin model; details: final concentration 50 μM, after 14 days; results not shown
Procedure: as §1

Row | SMILES | Rate of rise in intracellular Ca concentration ([1]; compound 50 μM) [%] | Effect of suppressing endothelin action (in words) [1] | Suppression of endothelin-induced rise in intracellular Ca concentration ([1]; compound 50 μM, relative to control) | Effect on melanin content / melanin production (in words) ([2]; ET-1 and SCF each 10 nM) | Cytotoxicity (cell respiration activity, Alamar Blue) [3] | Reduction in melanin content in the skin tissue relative to the control system ([2]; 50 μM, ET-1 and SCF each 10 nM, FIG. 3, N=2) | Skin colour of the skin sheet (photograph, FIG. 2) ([2]; 50 μM, compared with the control system)
1 | COc1cc(C)c(C(=O)Oc2cc(C)c(C(=O)O)c(O)c2C)c(O)c1C [Barbatic Acid, Barbatic acid] | 38.4 | – | – | – | – | – | –
2 | COc1cc(C)c(C(=O)Oc2cc(C)c(C(=O)O)c(O)c2C)c(O)c1C(=O)O [Squamatic Acid, squamatic acid, reference compound] | 95.9 | almost no effect of suppressing endothelin action | about 4% | no significant reduction in melanin content; also recorded: almost no effect of suppressing melanin production | – | – | –
3 | COc1cc(C)c(C(=O)Oc2cc(C)c(C(=O)O)c(O)c2C)c(O)c1C=O [Baeomycesic Acid, baeomycesic acid] | 52.7 | significantly suppresses the rise in intracellular Ca concentration | – | significantly suppresses melanin production | not cytotoxic | at least 40% | light skin color and suppressed skin blackening
4 | COc1cc(C)c(C(=O)Oc2cc(C)c(C(=O)O)c(O)c2C)c(OC)c1C [Diffractaic Acid, Diffractaic acid] | 28.0 | – | – | – | – | – | –
